In ChEMBL document CHEMBL2176903, “P2-substituted N-acylprolylpyrrolidine inhibitors of prolyl oligopeptidase: biochemical evaluation, binding mode determination, and assessment in a cellular model of synucleinopathy” (J Med Chem, 2012) one finds IC50 data, which are given here for 27 molecules.

SMILES strings stand for the structures.

Experiment [1] can be described thus: Inhibition of bovine testes DPP9 assessed as pNA release from Ala-Pro- p-nitroanilide substrate pre-incubated with enzyme for 15 min prior to substrate addition by […]. Details: species or system Bos taurus.
The target in another experiment is Dipeptidyl peptidase 2 (Homo sapiens, UniProt Q9UHL4). The experiment can be described thus: Inhibition of human seminal plasma DPP2 assessed as pNA release from Lys-Ala-p-nitroanilide substrate pre-incubated with enzyme for 15 min prior to substrate addition by […].
The next experiment concerns the target Dipeptidyl peptidase 4 (Homo sapiens, UniProt P27487). Put plainly: Inhibition of human seminal plasma DPP4 assessed as pNA release from Gly-Pro-p-nitroanilide substrate pre-incubated with enzyme for 15 min prior to substrate addition by […].
A further experiment has as its target Prolyl endopeptidase (Sus scrofa, UniProt P23687). The experiment can be described thus: Inhibition of pig PREP expressed in Escherichia coli using Z-Gly-Pro-p-nitroanilide substrate.
In a further experiment the target is T1, Prolyl endopeptidase FAP (Mus musculus, UniProt P97321).
T1 sequence (P97321 whole entry): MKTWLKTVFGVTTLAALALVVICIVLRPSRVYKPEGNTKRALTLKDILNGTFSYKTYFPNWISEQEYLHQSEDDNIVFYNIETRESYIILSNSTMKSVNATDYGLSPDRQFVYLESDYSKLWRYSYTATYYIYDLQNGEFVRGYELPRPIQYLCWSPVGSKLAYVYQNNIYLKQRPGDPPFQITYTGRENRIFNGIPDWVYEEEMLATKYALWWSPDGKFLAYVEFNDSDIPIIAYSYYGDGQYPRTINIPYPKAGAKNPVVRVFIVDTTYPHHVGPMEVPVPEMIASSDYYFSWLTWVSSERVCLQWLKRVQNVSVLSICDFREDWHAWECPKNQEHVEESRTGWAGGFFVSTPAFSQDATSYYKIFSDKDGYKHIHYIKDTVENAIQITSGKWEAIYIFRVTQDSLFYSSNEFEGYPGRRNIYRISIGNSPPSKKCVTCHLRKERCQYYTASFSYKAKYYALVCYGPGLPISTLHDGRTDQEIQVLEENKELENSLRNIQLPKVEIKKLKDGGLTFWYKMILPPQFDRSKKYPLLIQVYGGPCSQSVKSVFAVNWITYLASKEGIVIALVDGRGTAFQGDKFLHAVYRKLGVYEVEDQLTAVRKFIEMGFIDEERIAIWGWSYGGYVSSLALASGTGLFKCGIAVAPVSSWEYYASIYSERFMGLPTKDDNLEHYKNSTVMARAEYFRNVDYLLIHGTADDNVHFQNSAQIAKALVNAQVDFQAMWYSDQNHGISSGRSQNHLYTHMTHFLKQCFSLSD
Put plainly: Inhibition of mouse recombinant FAP expressed in HEK293 cells assessed as pNA release from Ala-Pro-p-nitroanilide pre-incubated with enzyme for 15 mins prior to substrate addition by […]. It is filed as cell-based.

Dipeptidyl peptidase 4, sequence (P27487 whole entry): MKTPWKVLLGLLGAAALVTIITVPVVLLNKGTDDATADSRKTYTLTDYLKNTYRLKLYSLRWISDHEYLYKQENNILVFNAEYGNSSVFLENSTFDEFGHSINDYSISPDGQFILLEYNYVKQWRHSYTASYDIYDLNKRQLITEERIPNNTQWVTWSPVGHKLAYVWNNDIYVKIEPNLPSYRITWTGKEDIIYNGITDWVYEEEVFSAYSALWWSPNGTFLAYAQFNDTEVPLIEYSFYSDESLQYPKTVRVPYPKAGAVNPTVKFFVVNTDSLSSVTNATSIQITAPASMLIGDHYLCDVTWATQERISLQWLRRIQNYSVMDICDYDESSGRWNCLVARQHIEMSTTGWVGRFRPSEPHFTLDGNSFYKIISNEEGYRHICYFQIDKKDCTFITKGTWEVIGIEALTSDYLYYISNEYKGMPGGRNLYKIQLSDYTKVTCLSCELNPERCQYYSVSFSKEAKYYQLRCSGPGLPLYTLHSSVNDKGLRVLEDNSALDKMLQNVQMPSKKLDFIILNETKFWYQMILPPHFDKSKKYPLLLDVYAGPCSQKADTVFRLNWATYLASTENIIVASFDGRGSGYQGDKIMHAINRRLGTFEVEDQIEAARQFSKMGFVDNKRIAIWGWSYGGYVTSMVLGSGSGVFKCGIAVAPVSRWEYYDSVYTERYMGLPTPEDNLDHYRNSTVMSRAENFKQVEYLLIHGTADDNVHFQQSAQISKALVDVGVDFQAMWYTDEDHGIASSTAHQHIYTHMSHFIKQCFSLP
Prolyl endopeptidase, sequence (P23687 whole entry): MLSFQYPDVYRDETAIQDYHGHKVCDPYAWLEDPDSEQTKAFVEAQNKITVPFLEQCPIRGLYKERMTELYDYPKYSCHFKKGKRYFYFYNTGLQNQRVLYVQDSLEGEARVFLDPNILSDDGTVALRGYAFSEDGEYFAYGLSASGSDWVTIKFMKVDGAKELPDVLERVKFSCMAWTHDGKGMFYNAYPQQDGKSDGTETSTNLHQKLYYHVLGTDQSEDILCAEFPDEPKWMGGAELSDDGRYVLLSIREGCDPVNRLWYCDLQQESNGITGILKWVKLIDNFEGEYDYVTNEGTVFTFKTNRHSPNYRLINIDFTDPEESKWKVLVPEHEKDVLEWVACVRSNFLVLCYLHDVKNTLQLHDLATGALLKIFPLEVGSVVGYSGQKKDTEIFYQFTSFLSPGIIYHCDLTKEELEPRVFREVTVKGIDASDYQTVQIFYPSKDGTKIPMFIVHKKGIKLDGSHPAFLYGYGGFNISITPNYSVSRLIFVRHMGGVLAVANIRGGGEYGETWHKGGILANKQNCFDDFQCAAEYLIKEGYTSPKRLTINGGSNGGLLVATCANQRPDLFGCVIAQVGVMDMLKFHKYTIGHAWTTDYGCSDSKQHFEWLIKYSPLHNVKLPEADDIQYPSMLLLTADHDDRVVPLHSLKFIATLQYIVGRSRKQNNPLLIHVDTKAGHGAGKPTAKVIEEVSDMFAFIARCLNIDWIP

For the molecule `O=C([C@@H]1C[C@H](n2cc(-c3ccc(F)cc3)nn2)CN1C(=O)CCCc1ccccc1)N1CCCC1`, the IC50 (as a rule, the midpoint of a concentration-inhibition curve) in experiment [1] is over 100 µM; at Dipeptidyl peptidase 2 it was over 100 µM; on Dipeptidyl peptidase 4 it was over 100 µM; against Prolyl endopeptidase, 0.033 µM.
For the molecule `O=C([C@@H]1CCCN1C(=O)OCc1ccccc1)N1CCCC1`, the IC50 (in experiment [1]; at Dipeptidyl peptidase 2; on Dipeptidyl peptidase 4; on Prolyl endopeptidase FAP) was over 100 µM each time.
Molecule `Cn1cnc(-c2cn([C@H]3C[C@@H](C(=O)N4CCCC4)N(C(=O)CCCc4ccccc4)C3)nn2)c1` yielded a half-maximal inhibitory concentration (IC50) at Prolyl endopeptidase of 0.09 µM.
As to `O=C([C@@H]1C[C@H](n2cc(-c3ccc(F)cc3F)nn2)CN1C(=O)CCCc1ccccc1)N1CCCC1`, the 50% inhibitory concentration (IC50) in experiment [1] was over 10 µM; at Dipeptidyl peptidase 2, over 100 µM; on Dipeptidyl peptidase 4, over 100 µM; at Prolyl endopeptidase FAP it was over 5 µM; on Prolyl endopeptidase, 0.024 µM.
For the molecule `O=C([C@@H]1C[C@H](n2cc(COCc3ccccc3)nn2)CN1C(=O)CCCc1ccccc1)N1CCCC1`, the IC50 was over 100 µM in experiment [1], over 100 µM on Dipeptidyl peptidase 2, over 100 µM at Dipeptidyl peptidase 4 and 0.131 µM on Prolyl endopeptidase.
`O=C([C@@H]1C[C@H](n2cc(-c3ccccc3)nn2)CN1C(=O)OCc1ccccc1)N1CCCC1`: the half-inhibitory concentration (IC50) in experiment [1] is over 100 µM; at Dipeptidyl peptidase 2 it was over 100 µM; on Dipeptidyl peptidase 4, over 100 µM; against Prolyl endopeptidase it was 0.478 µM.
As to `CC(C)(C)OC(=O)NCc1cn([C@@H]2C[C@@H](C(=O)N3CCCC3)N(C(=O)CCCc3ccccc3)C2)nn1`, the half-maximal inhibitory concentration (IC50) in experiment [1] is over 100 µM; at Dipeptidyl peptidase 2 it was over 100 µM; at Dipeptidyl peptidase 4 it was over 100 µM; at Prolyl endopeptidase FAP, over 100 µM; on Prolyl endopeptidase, 0.28 µM.
As for `O=C([C@@H]1C[C@H](n2cc(-c3ccccn3)nn2)CN1C(=O)OCc1ccccc1)N1CCCC1`, the IC50 in experiment [1] was 53 µM; on Dipeptidyl peptidase 2, over 100 µM; at Dipeptidyl peptidase 4, over 100 µM; on Prolyl endopeptidase FAP, over 100 µM; on Prolyl endopeptidase, 0.357 µM.
For the molecule `C[Si](C)(C)c1cn([C@H]2C[C@@H](C(=O)N3CCCC3)N(C(=O)OCc3ccccc3)C2)nn1`, the IC50 in experiment [1] was over 100 µM; on Dipeptidyl peptidase 2 it was over 100 µM; at Dipeptidyl peptidase 4, over 100 µM; on Prolyl endopeptidase FAP, over 100 µM; on Prolyl endopeptidase, 0.956 µM.
In the case of `O=C([C@@H]1C[C@H](n2cc(C3CC3)nn2)CN1C(=O)CCCc1ccccc1)N1CCCC1`, the IC50 in experiment [1] was over 10 µM; at Dipeptidyl peptidase 2 it was over 100 µM; on Dipeptidyl peptidase 4, over 100 µM; on Prolyl endopeptidase FAP it was over 100 µM; against Prolyl endopeptidase, 0.039 µM.
As to `[N-]=[N+]=N[C@H]1C[C@@H](C(=O)N2CCCC2)N(C(=O)OCc2ccccc2)C1`, the IC50 is over 100 µM in experiment [1]; over 100 µM at Dipeptidyl peptidase 2; over 100 µM at Dipeptidyl peptidase 4; over 100 µM at Prolyl endopeptidase FAP; 0.364 µM against Prolyl endopeptidase.
`CC(C)(C)OC(=O)NCc1cn([C@H]2C[C@@H](C(=O)N3CCCC3)N(C(=O)OCc3ccccc3)C2)nn1`: the half-inhibitory concentration (IC50) is over 10 µM in experiment [1]; over 100 µM at Dipeptidyl peptidase 2; over 100 µM at Dipeptidyl peptidase 4; over 100 µM at Prolyl endopeptidase FAP; 0.141 µM against Prolyl endopeptidase.
On to `O=C([C@@H]1CCCN1C(=O)CCCc1ccccc1)N1CCCC1`, for which the IC50 (in experiment [1]; on Dipeptidyl peptidase 2; at Dipeptidyl peptidase 4; on Prolyl endopeptidase FAP) was over 100 µM throughout.
Regarding `CC(C)(C)OC(=O)NCc1cn([C@H]2C[C@@H](C(=O)N3CCCC3)N(C(=O)CCCc3ccccc3)C2)nn1`, the IC50 in experiment [1] is over 100 µM; at Dipeptidyl peptidase 2 it was over 100 µM; on Dipeptidyl peptidase 4 it was over 100 µM; on Prolyl endopeptidase FAP it was over 100 µM; at Prolyl endopeptidase, 0.032 µM.
In the case of `O=C([C@@H]1C[C@H](n2cc(CN3CCOCC3)nn2)CN1C(=O)CCCc1ccccc1)N1CCCC1`, the half-maximal inhibitory concentration (IC50) is 1.1 µM in experiment [1]; over 100 µM at Dipeptidyl peptidase 2; over 50 µM at Dipeptidyl peptidase 4; over 100 µM at Prolyl endopeptidase FAP; 0.24 µM at Prolyl endopeptidase.
As to `O=C([C@@H]1C[C@@H](n2cc(-c3ccccc3)nn2)CN1C(=O)CCCc1ccccc1)N1CCCC1`, the half-inhibitory concentration (IC50) in experiment [1] was over 50 µM; on Dipeptidyl peptidase 2, over 100 µM; on Dipeptidyl peptidase 4, over 100 µM; against Prolyl endopeptidase, 0.542 µM.
`O=C([C@@H]1C[C@H](n2cc(-c3ccccn3)nn2)CN1C(=O)CCCc1ccccc1)N1CCCC1`: the 50% inhibitory concentration (IC50) in experiment [1] was over 100 µM; at Dipeptidyl peptidase 2, over 100 µM; at Dipeptidyl peptidase 4 it was over 100 µM; at Prolyl endopeptidase FAP it was over 100 µM; against Prolyl endopeptidase it was 0.069 µM.
Consider `O=C([C@@H]1C[C@H](n2cc(C3CCCCC3)nn2)CN1C(=O)CCCc1ccccc1)N1CCCC1`, for which the half-maximal inhibitory concentration (IC50) in experiment [1] is over 100 µM; at Dipeptidyl peptidase 2, over 100 µM; on Dipeptidyl peptidase 4, over 100 µM; at Prolyl endopeptidase FAP it was over 5 µM; against Prolyl endopeptidase it was 0.147 µM.
Take `O=C([C@@H]1C[C@H](n2cc(-c3ccc(F)c(F)c3)nn2)CN1C(=O)CCCc1ccccc1)N1CCCC1`: the IC50 was under 100 µM in experiment [1]; over 10 µM at Dipeptidyl peptidase 2; over 100 µM at Dipeptidyl peptidase 4; over 5 µM on Prolyl endopeptidase FAP; 0.0172 µM on Prolyl endopeptidase.
For the molecule `CC(C)(C)OC(=O)N1CCN(Cc2cn([C@H]3C[C@@H](C(=O)N4CCCC4)N(C(=O)CCCc4ccccc4)C3)nn2)CC1`, the 50% inhibitory concentration (IC50) in experiment [1] was 0.6 µM; on Dipeptidyl peptidase 2 it was over 100 µM; on Dipeptidyl peptidase 4 it was over 100 µM; on Prolyl endopeptidase FAP, over 100 µM; at Prolyl endopeptidase, 0.11 µM.
`N#C[C@@H]1CCCN1C(=O)[C@@H]1CCCN1C(=O)CCCc1ccccc1`: the IC50 was over 100 µM in experiment [1], over 100 µM on Dipeptidyl peptidase 2, over 100 µM on Dipeptidyl peptidase 4 and over 10 µM at Prolyl endopeptidase FAP.
Regarding `CN(C)Cc1cn([C@H]2C[C@@H](C(=O)N3CCCC3)N(C(=O)CCCc3ccccc3)C2)nn1`, the IC50 in experiment [1] is over 10 µM; on Dipeptidyl peptidase 2, over 100 µM; on Dipeptidyl peptidase 4, over 100 µM; at Prolyl endopeptidase it was 0.024 µM.
In the case of `[N-]=[N+]=N[C@@H]1C[C@@H](C(=O)N2CCCC2)N(C(=O)CCCc2ccccc2)C1`, the IC50 in experiment [1] is over 100 µM; at Dipeptidyl peptidase 2 it was over 100 µM; at Dipeptidyl peptidase 4, over 100 µM; on Prolyl endopeptidase FAP, over 100 µM; on Prolyl endopeptidase it was 0.304 µM.
Take `O=C([C@@H]1C[C@H](n2cc(-c3ccccc3)nn2)CN1C(=O)CCCc1ccccc1)N1CCCC1`: the IC50 was over 100 µM in experiment [1], over 100 µM at Dipeptidyl peptidase 2, over 100 µM at Dipeptidyl peptidase 4 and 0.17 µM against Prolyl endopeptidase.
As for `[N-]=[N+]=N[C@H]1C[C@@H](C(=O)N2CCCC2)N(C(=O)CCCc2ccccc2)C1`, the IC50 in experiment [1] is over 100 µM; at Dipeptidyl peptidase 2, over 100 µM; on Dipeptidyl peptidase 4, over 100 µM; on Prolyl endopeptidase FAP, over 100 µM; at Prolyl endopeptidase it was 0.142 µM.
With `O=C([C@@H]1C[C@H](n2ccnn2)CN1C(=O)OCc1ccccc1)N1CCCC1`, the half-maximal inhibitory concentration (IC50) in experiment [1] was 67 µM; at Dipeptidyl peptidase 2, over 100 µM; at Dipeptidyl peptidase 4 it was over 100 µM; at Prolyl endopeptidase FAP it was over 100 µM; at Prolyl endopeptidase, 1.16 µM.
In the case of `NCc1cn([C@H]2C[C@@H](C(=O)N3CCCC3)N(C(=O)CCCc3ccccc3)C2)nn1`, the half-maximal inhibitory concentration (IC50) is over 100 µM in experiment [1]; over 10 µM at Dipeptidyl peptidase 2; over 100 µM at Dipeptidyl peptidase 4; over 100 µM on Prolyl endopeptidase FAP; 0.17 µM at Prolyl endopeptidase.
